Measured values taken from article PMC12010937, “Evaluation of FXR Activity in Pollutants Identified in Sewage Sludge and Subsequent in Vitro and in Vivo Characterization of Metabolic Effects of Triphenyl Phosphate” (Environmental Health Perspectives, 2025).
Values joined by “and” are separate entries in the source; they are usually repeats but may differ in a detail not shown here. Identical values can stand only once. “Also recorded” adds a separate entry of the source. Like-named read-outs stand apart in the source and are kept apart here.

Key:
[1] = molecular target: T1, human FXR-LBD (GST-FXR-LBD) (Homo sapiens, UniProt Q96RI1); assay: HTRF coactivator recruitment assay, agonist mode; assay type: biochemical
T1 construct: the human FXR-LBD (residues 234–472) was expressed as a GST fusion protein GST-FXR-LBD; made in house; host or cells: E. coli BL21(DE3)
T1 sequence (Q96RI1 234-472 isoform Q96RI1-2): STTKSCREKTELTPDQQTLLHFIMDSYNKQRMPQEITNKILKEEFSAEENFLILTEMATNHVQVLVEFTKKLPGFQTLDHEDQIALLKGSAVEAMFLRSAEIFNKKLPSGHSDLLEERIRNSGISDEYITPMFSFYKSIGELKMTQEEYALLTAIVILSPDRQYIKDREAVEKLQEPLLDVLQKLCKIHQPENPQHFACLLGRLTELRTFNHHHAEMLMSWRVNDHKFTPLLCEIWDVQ

[2] = molecular target: T2, FXR (pCDNA3.1-hFXR, FXRE-luc) (Homo sapiens, UniProt Q96RI1); assay: cell-based; assay type: cell-based
T2 construct: host or cells: HEK 293T
T2 sequence (Q96RI1 1-486): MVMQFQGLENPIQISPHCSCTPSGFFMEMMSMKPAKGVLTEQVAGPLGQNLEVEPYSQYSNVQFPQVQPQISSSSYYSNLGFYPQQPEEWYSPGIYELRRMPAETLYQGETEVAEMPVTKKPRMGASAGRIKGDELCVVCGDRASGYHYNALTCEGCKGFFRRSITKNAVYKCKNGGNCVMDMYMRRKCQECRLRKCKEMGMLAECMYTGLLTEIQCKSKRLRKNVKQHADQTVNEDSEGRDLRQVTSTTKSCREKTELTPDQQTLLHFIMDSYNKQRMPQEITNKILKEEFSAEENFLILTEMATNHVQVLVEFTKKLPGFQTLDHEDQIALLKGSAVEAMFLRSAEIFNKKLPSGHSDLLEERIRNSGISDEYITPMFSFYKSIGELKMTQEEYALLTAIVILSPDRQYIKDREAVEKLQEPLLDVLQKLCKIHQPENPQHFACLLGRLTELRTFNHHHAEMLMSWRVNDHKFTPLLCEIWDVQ

[3] = Analysis of TPHP in mice (serum, liver, ileum) by UPLC-MS/MS; assay type: in vivo, C57BL/6N mice; conditions: mouse
Protocol: Male C57BL/6N mice (8 wk of age) were purchased from Beijing Vital River Laboratory Inc. and acclimated to the environment for 2 wk before they were used for experiments. The environment was maintained at 22°C, in a 12-h light/dark cycle with 50%–60% relative humidity and fed standard chow diets. Because the male mice are more sensitive to metabolic disease than female mice and the estrous cycle of female mice may induce variability to the metabolic phenotypes,[50] only male mice were used in this study. Animals were randomly assigned to control or TPHP treatment groups (five mice per group). Mice were exposed to corn oil (control) purchased from Sigma-Aldrich (C8267) or TPHP (dissolved in corn oil) at 10mg/kg or 50mg/kg body weight (BW) by daily oral gavage for 35 d. The administered volume was 5mL/kg BW. The TPHP corn oil solutions for administration were prepared by dissolving the TPHP in corn oil, and the solutions were stored at −20°C and freshly prepared each week. BW was measured every other day during the dosing period. At the end of experiments, the mice were anesthetized with isoflurane, then blood was collected from the retro-orbital sinus via orbital puncture, and then the mice were euthanized by cervical dislocation. The liver was isolated, weighted, and divided into three fractions: one fraction was fixed with 4% neutral-buffered formalin for Oil Red staining; another fraction was frozen in liquid nitrogen and stored at −80°C for the BA targeted analysis, lipidomic analysis, and qPCR analysis; the remaining fraction was embedded with 3% carboxymethylcellulose (CMC) for MSI analysis. The ileum was also isolated, weighted, and stored at −80°C for the BA targeted analysis and qRT-PCR analysis. Cecal contents were collected from the cecum of mice for the 16S rRNA gene sequencing analysis. Animal study protocols were approved by the Animal Care and Use Committee of Peking University (approval number: Urban-WanY-1).
Samples of serum ( 100μL ) and freeze-dried liver ( 50mg ) and ileum tissues ( 10mg ) were spiked with 10μL of 100 ng/mL TPHP- d15 (CDAA-412134D15; ANPEL) and extracted with 2mL of ethyl acetate for 10 min on an orbital shaker. After centrifuging at 4,000×g for 10 min, the supernatants were transferred to glass tubes. The extraction process was performed twice, and the supernatants were combined, concentrated to near dryness under a gentle stream of nitrogen, and reconstituted in 1mL of n -hexane. Then, the extracts were loaded on a Sep-Pak Aminopropyl ( NH2 ) cartridge (6cc, 500mg; Waters) preconditioned with 6mL of dichloromethane, 6mL of dichloromethane/n-hexane (1:4, v/v), and 6mL of n -hexane. After being rinsed with 6mL of n -hexane and 6mL of dichloromethane/n-hexane (1:4, v/v), the target analytes were eluted with 3mL of dichloromethane. The eluates were dried under a gentle stream of nitrogen and reconstituted in 100μL of methanol.
Analysis of TPHP was performed on a Waters Xevo TQ-XS Triple Quadrupole mass spectrometer coupled with the Waters ACQUITY UPLC I-Class System. An InfinityLab Poroshell C18 column ( 100×2.1mm , 1.9μm ) was used. The injection volume was 5μL . Ultrapure water (0.1% formic acid) (A) and acetonitrile (B) were used as the mobile phases. The elution gradient was performed as follows: 0–3 min, 50% B; 3–6 min, 50%−70% B; 6–6.2 min, 70%−100% B; 6.2–8.5 min, 100%−100% B; 8.5–8.6 min, 100%−50% B; 8.6–10 min, 50% B. The rate of flow was 0.3mL/min . The column temperature was maintained at 40°C. The mass spectrometer was equipped with an ESI source and operated in multiple reaction monitoring (MRM) and positive ion mode. A capillary voltage of 3.0 kV , a source temperature of 150°C, and a desolvation temperature of 500°C were used. Desolvation gas and the cone gas flow were set as 1,200 liters/h and 150 liters/h , respectively, and the collision gas was 0.15mL/min . […] The matrix effects were 114.9±4.3% and 118.4±0.5% for the serum and tissues, respectively.

In the case of `O=P(Oc1ccccc1)(Oc1ccccc1)Oc1ccccc1` [TPHP, triphenyl phosphate], the “Relative activity, agonist mode” value [1] is reported as 0.00%, the IC50 [2] is reported as 27.4 µM and the “Relative luciferase activity (%)” value ([2]; 0.01 μM, dose-response, replicates) is reported as 85.51% and 90.10% and 106.89%. The “Relative luciferase activity (%)” value ([2]; 0.1 μM, dose-response, replicates) was 104.74% and 89.81%, the “Relative luciferase activity (%)” value ([2]; 0.5 μM, dose-response, replicates) was 73.91% and 74.66% and the “Relative luciferase activity (%)” value ([2]; 1 μM, dose-response, replicates) was 77.48% and 70.96%. For the same compound, the “Relative luciferase activity (%)” value ([2]; 5 μM, dose-response, replicates) was 51.88% and 54.98% and 76.88%, the “Luciferase activity compared with DMSO control (in words)” value ([2]; 10 μM and 25 μM, in the presence of 50 μM CDCA, HEK 293T) was “significantly less luciferase activity; also recorded: lowest luciferase activity” and the “Relative luciferase activity (%)” value ([2]; 10 μM compound in the presence of 50 μM CDCA, DMSO 0%, 50 μM CDCA 100%, HEK 293T, replicates) was 2.5% and 7.4% and 17.9%. The “Relative luciferase activity (%)” value ([2]; 10 μM, dose-response, replicates) was 46.34% and 52.21%, the “Relative luciferase activity (%)” value ([2]; 25 μM compound in the presence of 50 μM CDCA, DMSO 0%, 50 μM CDCA 100%, HEK 293T, replicates) was -6.4% and -7.6% and -3.9% and the “Relative luciferase activity (%)” value ([2]; 25 μM, dose-response, replicates) was 2.58% and 9.91% and 5.01%. For the same compound, the “Relative luciferase activity (%)” value ([2]; 50 μM, dose-response, replicates) was -21.44% and -22.90% and -18.55%, the “Rate of FXR inhibition at the maximum exposure concentration” value ([2]; HEK 293T DLR assay, maximum exposure concentration) was 120.96% and the activity at 0.1 µM ([2]; HEK-293T, read-out: Relative luciferase activity (%), 0.1 μM, dose-response, replicates) was 87.5%. The activity at 0.5 µM ([2]; HEK-293T, read-out: Relative luciferase activity (%), 0.5 μM, dose-response, replicates) was 82.3%, the activity at 1 µM ([2]; HEK-293T, read-out: Relative luciferase activity (%), 1 μM, dose-response, replicates) was 63.9% and the activity at 10 µM ([2]; HEK-293T, read-out: Relative luciferase activity (%), 10 μM, dose-response, replicates) was 39.7%. It also gave a concentration at 35 d ([3]; male, C57BL/6N, ileum, TPHP-H: 50 mg/kg daily oral gavage 35 d, read-out: TPHP concentration in ileum) of 13.2 ± 0.91 ng/g, a concentration at 35 d ([3]; male, C57BL/6N, ileum, TPHP-L: 10 mg/kg daily oral gavage 35 d, read-out: TPHP concentration in ileum) of 7.24 ± 1.33 ng/g and a concentration at 35 d ([3]; male, C57BL/6N, liver, TPHP-H: 50 mg/kg daily oral gavage 35 d, read-out: TPHP concentration in liver) of 12.9 ± 3.31 ng/g. The concentration at 35 d ([3]; male, C57BL/6N, liver, TPHP-L: 10 mg/kg daily oral gavage 35 d, read-out: TPHP concentration in liver) was 5.33 ± 1.91 ng/g, the concentration at 35 d ([3]; serum, TPHP-H: 50 mg/kg daily oral gavage 35 d, male C57BL/6N mice, read-out: TPHP concentration in serum) was 0.79 ± 0.36 ng/mL and the concentration at 35 d ([3]; serum, TPHP-L: 10 mg/kg daily oral gavage 35 d, male C57BL/6N mice, read-out: TPHP concentration in serum) was 0.32 ± 0.03 ng/mL.
